Laboratory results as given in ChEMBL document CHEMBL3085716, “Hytramycins V and I, anti-Mycobacterium tuberculosis hexapeptides from a Streptomyces hygroscopicus strain” (J Nat Prod, 2013).
Values after ≈ are worked out from the molar mass of the structure shown.

Experiments:
[1] = system: Mycobacterium tuberculosis; assay: Ratio of MIC for Mycobacterium tuberculosis H37Rv under normoxic condition in presence of 10% fetal bovine serum to MIC for Mycobacterium tuberculosis H37Rv under normoxic condition in absence of 10% fetal bovine serum by MABA assay; format: functional
[2] = system: Mycobacterium tuberculosis; assay: Ratio of MIC for Mycobacterium tuberculosis H37Rv under normoxic condition in presence of 4% bovine serum albumin to MIC for Mycobacterium tuberculosis H37Rv under normoxic condition in absence of 4% bovine serum albumin by MABA assay; format: functional
[3] = system: Mycobacterium tuberculosis; assay: Antimycobacterial activity against Mycobacterium tuberculosis H37Rv under normoxic condition after 7 days by MABA assay in presence of 10% fetal bovine serum; format: functional; details: 168 h
[4] = system: Mycobacterium tuberculosis; assay: Antimycobacterial activity against Mycobacterium tuberculosis H37Rv under normoxic condition after 7 days by MABA assay in presence of 4% bovine serum albumin; format: functional; details: 168 h
Streptococcus pneumoniae = assay: Antibacterial activity against Streptococcus pneumoniae ATCC 49619 after 20 hrs; format: functional; details: ATCC 49619, 20 h
Pseudomonas aeruginosa [5] = assay: Antibacterial activity against Pseudomonas aeruginosa ATCC 27853 at 10 ug/ml after 16 hrs; format: functional; details: ATCC 27853, 16 h
Pseudomonas aeruginosa [6] = assay: Antibacterial activity against Pseudomonas aeruginosa ATCC 27853 after 16 hrs; format: functional; details: ATCC 27853, 16 h
Enterococcus faecalis [7] = assay: Antibacterial activity against Enterococcus faecalis ATCC 29212 after 16 hrs; format: functional; details: ATCC 29212, 16 h
Candida albicans [8] = assay: Antifungal activity against Candida albicans ATCC 10231 at 10 ug/ml after 48 hrs; format: functional; details: ATCC 10231, 48 h
Candida albicans [9] = assay: Antifungal activity against Candida albicans ATCC 10231 after 48 hrs; format: functional; details: ATCC 10231, 48 h
Staphylococcus aureus = assay: Antibacterial activity against Staphylococcus aureus ATCC 29213 after 16 hrs; format: functional; details: ATCC 29213, 16 h
Escherichia coli [10] = assay: Antibacterial activity against Escherichia coli ATCC 25922 at 10 ug/ml after 16 hrs; format: functional; details: ATCC 25922, 16 h
Escherichia coli [11] = assay: Antibacterial activity against Escherichia coli ATCC 25922 after 16 hrs; format: functional; details: ATCC 25922, 16 h
Acinetobacter baumannii [12] = assay: Antibacterial activity against Acinetobacter baumannii ATCC BAA-747 at 10 ug/ml after 16 hrs; format: functional; details: ATCC BAA-747, 16 h
Acinetobacter baumannii [13] = assay: Antibacterial activity against Acinetobacter baumannii ATCC BAA-747 after 16 hrs; format: functional; details: ATCC BAA-747, 16 h
[14] = system: Mycolicibacterium smegmatis; assay: Antimycobacterial activity against Mycobacterium smegmatis ATCC 700084 under normoxic condition after 72 hrs by MABA assay; format: functional; details: ATCC 700084, 72 h
[15] = system: Mycobacterium tuberculosis; assay: Antimycobacterial activity against Mycobacterium tuberculosis clinical isolate X005319 under normoxic condition after 7 days by MABA assay; format: functional; details: clinical isolate X005319, 168 h
[16] = system: Mycobacterium tuberculosis; assay: Antimycobacterial activity against Mycobacterium tuberculosis clinical isolate X005282 under normoxic condition after 7 days by MABA assay; format: functional; details: clinical isolate X005282, 168 h
[17] = system: Mycobacterium tuberculosis; assay: Antimycobacterial activity against Mycobacterium tuberculosis clinical isolate X004439 under normoxic condition after 7 days by MABA assay; format: functional; details: clinical isolate X004439, 168 h
[18] = system: Mycobacterium tuberculosis; assay: Antimycobacterial activity against Mycobacterium tuberculosis clinical isolate X004244 under normoxic condition after 7 days by MABA assay; format: functional; details: clinical isolate X004244, 168 h
[19] = system: Mycobacterium tuberculosis; assay: Antimycobacterial activity against Mycobacterium tuberculosis clinical isolate X003899 under normoxic condition after 7 days by MABA assay; format: functional; details: clinical isolate X003899, 168 h
[20] = system: Mycobacterium tuberculosis; assay: Antimycobacterial activity against Mycobacterium tuberculosis clinical isolate X001354 under normoxic condition after 7 days by MABA assay; format: functional; details: clinical isolate X001354, 168 h
Vero = assay: Cytotoxicity against african green monkey Vero cells; format: cell-based; details: Chlorocebus sabaeus
[21] = system: Mycobacterium tuberculosis; assay: Antimycobacterial activity against Mycobacterium tuberculosis H37Rv under normoxic condition after 7 days by MABA assay; format: functional
Enterococcus faecalis [22] = assay: Antibacterial activity against Enterococcus faecalis ATCC 29212 at 10 ug/ml after 16 hrs; format: functional; details: ATCC 29212, 16 h
[23] = system: Streptomyces lavendofoliae; assay: Antibacterial activity against Streptomyces lavendofoliae after 16 hrs; format: functional
[24] = Mycobacterium tuberculosis, H37Rv, 168 h

CC[C@H](C)[C@H]1NC(=O)[C@H](CC(C)C)NC(=O)[C@H]2CCCNN2C(=O)[C@H](C)N(C)C(=O)[C@H]2CCCNN2C(=O)[C@@H]2CCCNN2C1=O showed a Ratio [1] of 2, a Ratio [2] of 2 and an MIC90 [3] of 9.4 µg/mL. The MIC90 [4] was 11.9 µg/mL, the MIC90 (Streptococcus pneumoniae) was 2.4 µg/mL (≈ 3.7 µM) and the inhibition at 10 µg/mL (Pseudomonas aeruginosa [5]) was 10%. The MIC90 (Pseudomonas aeruginosa [6]) was over 10 µg/mL, the MIC90 (Enterococcus faecalis [7]) was 3.5 µg/mL (≈ 5.4 µM) and the inhibition at 10 µg/mL (Candida albicans [8]) was 0%. For the same molecule, the MIC90 (Candida albicans [9]) was over 10 µg/mL, the MIC90 (Staphylococcus aureus) was 4.5 µg/mL (≈ 6.95 µM) and the inhibition at 10 µg/mL (Escherichia coli [10]) was 2%. The MIC90 (Escherichia coli [11]) was over 10 µg/mL, the inhibition at 10 µg/mL (Acinetobacter baumannii [12]) was 77% and the MIC90 (Acinetobacter baumannii [13]) was over 10 µg/mL. It also gave an MIC90 [14] of over 10 µg/mL, an MIC90 [15] of 4.8 µg/mL (≈ 7.41 µM) and an MIC90 [16] of 4.7 µg/mL (≈ 7.26 µM). It also gave an MIC90 [17] of 4.4 µg/mL (≈ 6.79 µM), an MIC90 [18] of 4.7 µg/mL (≈ 7.26 µM) and an MIC90 [19] of 4.8 µg/mL (≈ 7.41 µM). For the same molecule, the MIC90 [20] was 4.7 µg/mL (≈ 7.26 µM), the IC50 (Vero) was 7.7 µg/mL (≈ 11.9 µM) and the MBC90 [21] was 44.2 µg/mL (≈ 68.2 µM). The MIC90 [21, 24] was 6 µg/mL (≈ 9.26 µM).

In the case of NC[C@H]1O[C@H](O[C@H]2[C@H](O)[C@@H](O[C@H]3O[C@H](CO)[C@@H](O)[C@H](N)[C@H]3O)[C@H](N)C[C@@H]2N)[C@H](O)[C@@H](O)[C@@H]1O [KANAMYCIN], the MIC90 (Acinetobacter baumannii [13]) is reported as 0.7 µg/mL (≈ 1.44 µM).

CC(C)/N=c1\cc2n(-c3ccc(Cl)cc3)c3ccccc3nc-2cc1Nc1ccc(Cl)cc1 [CLOFAZIMINE] gave an MIC90 [14] of 1.1 µg/mL (≈ 2.32 µM).

CC1(C)S[C@@H]2[C@H](NC(=O)[C@H](N)c3ccccc3)C(=O)N2[C@H]1C(=O)O [AMPICILLIN] was tested, and the inhibition at 10 µg/mL (Enterococcus faecalis [22]) was 66%, the MIC90 (Enterococcus faecalis [7]) was over 10 µg/mL and the MIC90 (Staphylococcus aureus) was 1.2 µg/mL (≈ 3.43 µM). For the same molecule, the MIC90 (Escherichia coli [11]) was 8.9 µg/mL (≈ 25.5 µM).

NCC[C@H](O)C(=O)N[C@@H]1C[C@H](N)[C@@H](O[C@H]2O[C@H](CN)[C@@H](O)[C@H](O)[C@H]2O)[C@H](O)[C@H]1O[C@H]1O[C@H](CO)[C@@H](O)[C@H](N)[C@H]1O [AMIKACIN] showed an MIC90 (Pseudomonas aeruginosa [6]) of 1.8 µg/mL (≈ 3.07 µM).

Molecule CC(=O)N1CCN(c2ccc(OCC3COC(Cn4ccnc4)(c4ccc(Cl)cc4Cl)O3)cc2)CC1 (stereo unspecified) [KETOCONAZOLE] has an MIC90 (Candida albicans [9]) of under 0.004 µg/mL.

Cc1ncc([N+](=O)[O-])n1CCO [METRONIDAZOLE] showed an MIC90 [3] of over 87.6 µg/mL, an MIC90 [4] of over 87.6 µg/mL and an MIC90 [15] of over 87.6 µg/mL. It also gave an MIC90 [16] of over 87.6 µg/mL, an MIC90 [17] of over 87.6 µg/mL and an MIC90 [18] of over 87.6 µg/mL. For the same molecule, the MIC90 [19] was over 87.6 µg/mL, the MIC90 [20] was over 87.6 µg/mL and the MIC90 [21, 24] was over 87.6 µg/mL.

With C[C@@H]1[C@H](O)[C@@H](C)/C=C/C=C/C=C/C=C/C=C/C=C/C=C/[C@H](O[C@@H]2O[C@H](C)[C@@H](O)[C@H](N)[C@@H]2O)C[C@@H]2O[C@](O)(C[C@@H](O)C[C@@H](O)[C@H](O)CC[C@@H](O)C[C@@H](O)CC(=O)O[C@H]1C)C[C@H](O)[C@H]2C(=O)O [AMPHOTERICIN B] the MIC90 (Candida albicans [9]) was 0.4 µg/mL (≈ 0.433 µM).

C[C@H]1c2cccc(O)c2C(=O)C2=C(O)[C@]3(O)C(=O)C(C(N)=O)=C(O)[C@@H](N(C)C)[C@@H]3[C@@H](O)[C@@H]21.O [DOXYCYCLINE] was tested, and the MIC90 (Acinetobacter baumannii [13]) was 0.1 µg/mL.

C=C1NC(CC(C)C)C(=O)N[C@H](C(C)C)C(=O)N2NCCCC2C(=O)CC(CC(C)C)C(=O)N2NCCCC2C(=O)OC(C)[C@H]1NC(=O)[C@@H](NC=O)[C@@H](C)CC (stereo partly specified) showed an MIC [23] of 3.12 µg/mL (≈ 3.95 µM).

For CC(C)[C@H]1NC(=O)[C@@H]2C[C@@]3(O)c4ccc(Cl)cc4N[C@H]3N2C(=O)[C@H]2CCCNN2C(=O)[C@H](C)N(C)C(=O)[C@H]2CCCNN2C(=O)[C@@H]2CCCNN2C1=O, the MIC [21, 24] was 18.6 µg/mL (≈ 24.6 µM).
